Data as given in patent US6416737B1, “Increasing bone strength with selected bisphosphonates” (Board of Trustees of the University of Arkansas, priority 1998, dated 2002).
Read-outs that look alike come from different tables or passages of the source.

Legend:
[1] = cited from earlier work
ERK1/2 = ERK1/2 phosphorylation in MLO-Y4 cells by Western blot; assay type: cell-based, murine; settings: 10^−7 M
Method: Monolayers were washed with cold 20 mM Tris-HCl (pH 7.5), 150 mM NaCl, 1 mM sodium orthovanadate and lysed in the lysis buffer mentioned above. Insoluble material was pelleted in a microcentrifuge at 14,000×rpm for 10 mn. […] Proteins (10 μg) were separated on 7.5% SDS-polyacrylamide gels and electrotransferred to a polyvinylidene difluoride membrane. Immunoblotting was performed using a mouse monoclonal antibody recognizing tyrosine phosphorylated ERK1/2, or a rabbit polyclonal antibody recognizing total ERK1/2, followed by incubation with either an antimouse or an antirabbit antibody conjugated with horseradish peroxidase. Blots were developed using Chemiluminescence according to the manufacturer's recommendations. Quantitation of the intensity of the bands in the autoradiograms was performed using a scanner (Microtek Lab., Redondo Beach, Calif.).

MLO-Y4 osteocytic cells = settings: for inhibition of glucocorticoid-induced apoptosis / prevention of apoptosis induced by etoposide or TNF-α: 1 h pretreatment; for inhibition of glucocorticoid-induced apoptosis: then dexamethasone 10^−6 M for 6 h; for prevention of apoptosis induced by etoposide or TNF-α: 10^−7 M, 6 h; for cell viability in the absence of pro-apoptotic stimuli: 10^−10 to 10^−3 M
Method: The murine long bone-derived osteocytic cell line MLO-Y4 was provided by Dr. Lynda Bonewald (University of Texas Health Center at San Antonio, Tex.). Cells were cultured in phenol red-free αMEM supplemented with 5% FBS, 5% bovine calf serum, 100 U/ml penicillin and 100 μg/ml streptomycin. Cells were plated at 1-2×10^4 cells/cm^2 on collagen type I coated plates, as described previously (Kato, et al., 1997. J. Bone Miner. Res. 12:2014-2023). Murine calvaria cells were obtained from neonatal (3- to 6-day old) C57BL/6J mice by controlled digestion with collagenase, as previously described (Bellido, et al., 1997. Endocrinology 138:3666-3676). After isolation, cells were cultured in 10% FBS at 1-2×10^4 cells/cm^2 until 90-95% confluence. Subsequently, cells were harvested and frozen for later use. UMR-106-06 cells were cultured in phenol red-free MEM supplemented with 10% FBS, 1% non-essential aminoacids, 100 U/ml penicillin, and 100 μg/ml streptomycin (Sakagami, et al., Manolagas. 1993. J. Bone Miner. Res. 8:811-816).
Nonadherent cells were combined with adherent cells released from the culture dish using trypsin-EDTA, resuspended in medium containing serum, and collected by centrifugation. […] At least 100 cells per condition were counted.
(§1) MLO-Y4 osteocytic cells and calvaria osteoblastic cells were treated for 1 hour in the absence or presence of different BPs or sCT. Subsequently, dexamethasone, etoposide or TNF-α were added to obtain final concentrations of 10^−6 M, […], or 1 nM, respectively, and cells were incubated for additional 6 h. The effect of PD98059 (50 μM) or UO126 (1 μM) was evaluated by pretreating the cells with the inhibitors for 30 min before adding the BPs or sCT. In the experiment using the membrane permeable caspase inhibitor DEVD, cells were cultured for 1 hour with 50 nM DEVD-CHO and subsequently the pro-apoptotic agents were added to reach the final concentrations indicated above. […] At least 500 cells from fields selected by systematic random sampling were examined for each experimental condition. […] The TUNEL reaction was performed according to the manufacturer's instructions, using 0.15% CuSO4 for color enhancement. Negative controls were made by omitting the transferase from the reaction. Cells presenting brown nuclear staining were considered positive. More than 500 cells per condition were analyzed. Apoptosis of parental MLO-Y4 or calvaria cells was quantified by trypan blue staining (Jilka, et al., 1998. J. Bone Miner. Res. 13:793-802). Nonadherent cells were combined with adherent cells released from the culture dish using trypsin-EDTA, resuspended in medium containing serum, and collected by centrifugation. […] At least 100 cells per condition were counted.
MLO-Y4 cells were incubated for 1 h in vehicle or 50 nM DEVD-CHO. Subsequently, etoposide, TNF-α, or dexamethasone (Dex) were added at final concentrations of 50 μg/ml, 1 nM, or 10^−6 M, respectively, and cells were incubated for additional 6 h. Dead cells were enumerated by trypan blue uptake.
The percentage of dead cells was determined by trypan blue uptake, as in Methods and Materials. Bars represent the mean ±S.D. of three independent measurements.
Subsequently, etoposide, TNF-α, or dexarnethasone were added to reach final concentrations of 50 μg/ml, 1 nM, or 10^−6 M, respectively, and cells were cultured for 6 h, as in FIG. 1. The percentage of dead cells was determined by trypan blue uptake. Bars represent the mean ±S.D. of three independent measurements. Data were analyzed by two-way ANOVA.

osteoclast = settings: cited from earlier work
[2] = tested on: osteoblastic cells derived from murine calvaria; test: Apoptosis of osteoblastic cells derived from murine calvaria by trypan blue uptake; assay type: cell-based; settings: 10^−7 M, 1 h pretreatment; 6 h
[3] = tested on: MLO-Y4 cells stably transduced with GFP; test: Apoptosis by nuclear morphology of MLO-Y4 cells transduced with nuclear GFP; assay type: cell-based, murine; settings: absence of dexamethasone; 10^−7 M
Method: Supernatants containing retroviral particles were collected 24-48 h after transfection, and used immediately to infect cell cultures. […] Subsequently, cells were exposed to the supernatants containing the viral particles once more before being trypsinized and plated at low density.
Cells presenting brown nuclear staining were considered positive. More than 500 cells per condition were analyzed. […] At least 100 cells per condition were counted.

[4] = rats, intravenously; cited from earlier work
[5] = tested on: osteocyte and osteoblast apoptosis in murine vertebral cancellous bone; test: Murine model of glucocorticoid excess: TUNEL in vertebral bone sections and spinal BMD by DEXA; assay type: in vivo, Male Swiss Webster mice; settings: alendronate beginning 3 days before prednisolone pellets
Source text: To adjust for the difference in the metabolic rate in mice compared to that in humans, the daily glucocorticoid dose was divided by the metabolic weight, i.e. the weight in kg to the 3/4 power (Borchard, et al., 1992. Drug dosage in laboratory animals: a handbook. CRC Press, Inc., Boca Raton, Fla. 514 pp.; Kleiber, M. 1961. The fire of life: an introduction to animal energetics. New York). […] One control group received saline injections with placebo pellet implantation while another group received saline injections plus prednisolone pellets. Dual-energy X-ray absorptiometry (DEXA) was used to determine spinal bone mineral density (spinal BMD) at the end of the 56-day experiment, as previously described (Weinstein et al., 1998. J. Clin. Invest. 102:274-282).
Sections of vertebral bone (L1 to L5) were mounted on silane-coated glass slides (Scientific Device Lab, Inc., Des Plains, Ill.), deplasticized and incubated in 10 mM citrate buffer, pH 7.6, in a microwave oven at 98° C. for 5 minutes (Jilka, et al., 1998. J. Bone Miner. Res. 13:793-802). Slides were then incubated with 0.5% pepsin for 30 minutes at 37° C. Apoptotic cells were detected by the TUNEL reaction as described above using 0.15% CuSO4 for color enhancement of the diaminobenzidine in sections counterstained with 1% methyl green. The TUNEL reaction is noted within cell nuclei and the cells whose nuclei were clearly brown from the streptavidin-horse radish peroxidase conjugate instead of blue-green from the methyl green were interpreted as positive. Plastic-embledded sections of weaned rat mammary tissue were used as a positive control. Negative controls were made by omitting the transferase from the TUNEL reaction. Morphological changes characteristic of apoptosis were carefully examined to minimize ambiguity regarding the interpretation of results. […] Osteocytes were identified inside lacunae in mineralized bone (FIG. 11A). Osteoblasts were identified as cuboidal cells lining the osteoid-covered trabecular perimeter (FIG. 11B).

osteocytic MLO-Y4 cells = test: TUNEL reaction in MLO-Y4 cells; assay type: cell-based, murine; settings: 10^−7 M alendronate 1 h and/or 10^−6 M dexamethasone 6 h
Method: as §1

osteoblast apoptosis = settings: intermittent PTH administration in mice; decreased from 1.7-2.2%; cited from earlier work

Method for caspase-3: Caspase-3 activity was measured by determining the degradation of the fluorometric substrate DEVD, that contains acid sequence of the caspase-3 cleavage site in poly(ADP-ribose)polymerase (PARP) (Schlegel, et al., 1996. J. Biol. Chem. 271:1841-1844) conjugated with 7-amino-4-trifluoromethyl coumarin (DEVD-AFC). Cells were lysed in 20 mM Tris-HCl (H 7.5), 150 mM NaCl, 1 mM EDTA, 10 mM NaF, 1 mM sodium orthovanadate, 5 μg/ml leupeptin, 0.14 U/ml aprotinin, 1 mM phenylmethylsulfonylfluoride, and 1% Triton X-100. Protein concentration was measured using a Bio-Rad detergent compatible kit (Hercules, Calif.). Lysates (100 μg protein) were incubated with 50 μM DEVD-AFC in 50 mM HEPES, pH 7.4, 100 mM NaCl, 0.1% CHAPS, 10 mM DTT, 1 mM EDTA, 10% glycerol, in the absence or presence of the irreversible inhibitor DEVD-CHO for 60 min. The released fluorescent AFC was measured in a microplate fluorescence reader FL500 (Bio Tek Instruments, Winooski, Vt.) with excitation/emission wavelengths of 340/542 nm.
Caspase-3 activity was determined by measuring the degradation of the fluorometric substrate DEVD-AFC in the absence or presence of the irreversible inhibitor DEVD-CHO, as detailed in Example 5.

## [F-].[Na+] [sodium fluoride]
[1]; for at least four years
  increase in vertebral bone mass: 10 % a year

## CC(O)(P(=O)(O)O)P(=O)(O)O [etidronate]
ERK1/2
  phosphorylation of ERK 1 and 2: increase in the phosphorylated fraction of ERKs
[1]; after one year of treatment
  reduction of resorption depth in human iliac trabecular bone: ~30%
MLO-Y4 osteocytic cells
  inhibition of glucocorticoid-induced apoptosis: Comparable responses

## CN(C)CCC(N)(P(=O)(O)O)P(=O)(O)O [IG-9402, 1-amino-3-(N,N-dimethylamino)-propyliden-1,1-bisphosphonic acid]
osteoclast
  antiresorptive activity / effect on osteoclast: lacks anti-resorptive activity
  potency ratio to affect the osteoclast, relative to pamidronate: ⅙
osteoclast; listed as IG9204
  antiresorptive activity / effect on osteoclast: do not block osteoclast activity at all
osteoclast; listed as IG9402
  antiresorptive activity / effect on osteoclast: devoid of any antiresorptive activity
ERK1/2
  earliest time at which increased ERK phosphorylation was observed: 0.5 min
  phosphorylation of ERK 1 and 2: rapid and transient increase
[2]
  inhibition of apoptosis of osteoblastic cells induced by dexamethasone, TNF-α and etoposide: inhibited apoptosis
[3]
  proportion of cells exhibiting chromatin condensation and/or nuclear fragmentation versus untreated: no significant differences
MLO-Y4 osteocytic cells
  prevention of apoptosis induced by etoposide or TNF-α: prevented apoptosis
  cell viability in the absence of pro-apoptotic stimuli: did not affect cell viability
MLO-Y4 osteocytic cells; concentrations higher than 10^−6 M
  inhibitory effect on glucocorticoid-induced apoptosis at high concentrations: persisted at high concentrations

## CC(=O)N[C@@H](CS)C(=O)O [N-acetylcysteine, acetarnido-mercaptopropionic acid]
[4]
  LD50: 1140 mg/kg

## NCCCC(O)(P(=O)(O)O)P(=O)(O)O [alendronate, 4-amino-1-hydroxybutylidene-1,1-bisphosphonate]
caspase-3; 10^−7 M alendronate 1 h, then 10^−6 M dexamethasone 16 h
  dexamethasone-induced increase in caspase-3 activity: inhibited the dexamethasone-induced increase in caspase-3 activity
caspase-3; alendronate alone, absence of dexamethasone
  caspase-3 activity, TUNEL positive cells and number of living cells: did not affect any of these parameters
ERK1/2
  earliest time at which increased ERK phosphorylation was observed: 0.5 min
  phosphorylation of ERK 1 and 2: rapid and transient increase
[2]
  inhibition of apoptosis of osteoblastic cells induced by dexamethasone, TNF-α and etoposide: inhibited apoptosis
[5]
  bone loss induced by the glucocorticoid: prevented the bone loss
  increase in bone cell apoptosis induced by the glucocorticoid: abolished the increase in bone cell apoptosis
Osteocytic MLO-Y4 cells
  % of TUNEL positive cells: 6.16%
  Number of TUNEL positive cells: 35
  number of TUNEL negative cells: 533
MLO-Y4 osteocytic cells; 10^−6 M dexamethasone 24 h, 10^−7 M alendronate 1 h pretreatment
  number of living MLO-Y4 cells: abolished this effect
MLO-Y4 osteocytic cells
  prevention of apoptosis induced by etoposide or TNF-α: prevented apoptosis
  cell viability in the absence of pro-apoptotic stimuli: did not affect cell viability
  inhibition of glucocorticoid-induced apoptosis: Comparable responses

B1: PTH: parathyroid hormone, intermittent administration (protein, UniProt P01270 32-115, looked up)
Parathyroid hormone: SVSEIQLMHNLGKHLNSMERVEWLRKKLQDVHNFVALGAPLAPRDAGSQRPRKKEDNVLVESHEKSLGEADKADVNVLTKAKSQ
modifications: Parathyroid hormone
notes: parathyroid hormone, intermittent administration
Osteoblast apoptosis
  prevalence of osteoblast apoptosis: 0.1-0.4%
